Source: patent US20150119394A1, “Insulin-Like Growth Factor-1 Receptor Inhibitors” (Merck Sharp & Dohme Corp., priority 2012, published 2015)

Assays:
[1] = target: T1, intracellular kinase domain of human IGF-1R (GST fusion protein) (Homo sapiens, UniProt P08069); test: In vitro IGF-1R kinase assay (HTRF); format: biochemical; details: ATP 20 μM, IGFRK 0.25 nM
T1 construct: IGFRK and IRK enzyme used for the assay was intracellular kinase domain of human IGF-1R; GST; made in house

[2] = test system: A673 (Ewing's Sarcoma) cancer cell line; test: Anti-proliferative assay (MTS / CCK-8); format: cell-based; details: for anti-proliferative activity as compared to compound 999: Ewing's Sarcoma cell line; for IC50: Homo sapiens, A673 (Ewing's Sarcoma), 72 hours, 100 ng/mL IGF, read-out: Anti-proliferation IC50
Method: Anti-proliferative potential of compounds was tested using various cell lines (details provided in Table 2) by MTS (Promega, Cat # G1111), a tetrazolium compound ((3-(4,5-dimethylthiazol-2-yl)-5-(3-carboxymethoxyphenyl)-2-(4-sulphophenyl)-2Htetrazolium, inner salt; MTS) and Cell Counting kit-8 (CCK-8 a Dojindo's highly watersoluble tetrazolium salt of WST-8 [2-(2-methoxy-4-nitrophenyl)-3-(4-nitrophenyl)-5-(2,4-disulfophenyl)-2H-tetrazolium, monosodium salt]). MTS is a colorimetric assay for determining the number of viable cells in proliferation, cytotoxicity or chemosensitivity assays. This is used with an electron coupling reagent PMS (Phenazine methosulfate). MTS is bioreduced by cells into a formazan that is soluble in tissue culture medium. The absorbance of the formazan at 490 nm can be measured directly from 96 well assay plates without additional processing. Dehydrogenase enzymes found in metabolically active cells accomplish the conversion of MTS into the aqueous soluble formazan. The quantity of formazan product is directly proportional to the number of living cells in culture. In CCK-8, WST-8 is reduced by dehydrogenases in cells to give a yellow colored product formazan, which is measured at 450 nm.
For experimental purposes, cells were seeded at a density of 3000-5000 cells per well in 180 μL/well volume in transparent 96 well tissue culture plate (NUNC, USA) and incubated overnight at 37° C., 5% CO2. Next day before adding compound the medium was replaced and 180 μL, of fresh medium added with the 100 ng/mL IGF without FCS followed by addition of 20 μL of 10× compound (10 mM stock made in DMSO and then further dilutions were made in medium, final DMSO concentration should not exceed 0.5%) and incubated for 72 hours in humidified 5% CO2 incubator at 37±1° C. After incubation medium was replaced with 200 μL of medium containing 20 μL MTS reagent per well. Plates were incubated for 3-4 hours and absorbance was measured at 490 nm on Spectrophotometer (SpectraMax, Molecular Devices). Percentage cytotoxicity and IC50 was calculated using SoftMax software. CCK-8 was used for suspension cell lines. Cell seeding and compound addition was done on same day. Following the incubation, 10 μL of CCK-8 solution was added in each well. After 4 hour incubation, the absorbance was determined at 450 nm using Spectrophotometer (SpectraMax, Molecular Devices). In every experiment, each condition was run in triplicate wells.

CYP3A4 = target: T2, CYP3A4 (Homo sapiens, UniProt P08684); test: CYP inhibition fluorescence assay (rhCYP450, Vivid Invitrogen kit); format: in vitro ADME; details: for hepatic CYP3A4 inhibition as compared to compound 999: 10 uM; for inhibition at 10 uM: human, read-out: % inhibition @ 10 uM 3A4
T2 construct: purchased Invitrogen (Vivid screening kits)
Method: (§1) The % inhibition @ 10 uM data was generated from an rhCYP450/fluorescence assay according to the Vivid Invitrogen screening kits. The compounds were screened against 5 CYP450 (1A2, 2C9, 2C19, 2D6, and 3A4) isoforms. CYP3A4 constitutes 28% of the human hepatic CYP and is responsible for metabolism of 50% of all drugs. In this class of drugs, CYP3A4 is the most important CYP and thus it is highly desirable not to inhibit CYP3A4. The lower the percentage inhibition, the lower the CYP450 inhibitory liability of that specific compound.

CYP2D6 = target: T3, CYP2D6 (Homo sapiens, UniProt P10635); test: as above; format: in vitro ADME; details: for inhibition at 10 uM: human, read-out: % inhibition @ 10 uM 2D6
T3 construct: purchased Invitrogen (Vivid screening kits)
Method: as §1

[3] = Oral absorption in Swiss mice; format: in vivo; details: 10 mg/kg p.o.; for Cmax / half-life / AUC(0-inf): male, mouse, plasma, po; for AUC(0-inf): read-out: AUC0-infinity
Method: Oral absorption of different compounds was ascertained in Swiss mice. The procedure followed was as detailed below:
Species: Swiss mice, overnight fasted state
Sex and weight: Male, in the weight range of 25-30 g
Number of animals: 18 animals divided into six groups (n=3) and bled as follows:
Formulation: Compound suspended in 0.5% carboxymethylcellulose or 0.25% methylcellulose
Blood (250 μL) is collected from the retro-orbital sinus at designated time points from each mouse using heparinized bleeding capillaries into micro-centrifuge tubes containing 5 μL EDTA (200 mM) as anticoagulant. Plasma is separated by centrifugation at 10000 rpm for 5 min and samples stored at −70° C. until bioanalysis.
On the day of analysis, plasma samples are thawed at room temperature. An aliquot (100 μL) of each plasma sample is spiked individually with 10 μL of internal standard. The samples are then vortexed for 10 seconds followed by addition of 1 mL of extraction solvent and vortexed for 5 minutes. The samples are then centrifuged at 10000 rpm for 5 minutes at 4° C. Supernatants (800 μL) are removed and transferred to glass tubes and evaporated to dryness under nitrogen. The dried residues are reconstituted using 100 μL of 90:10% v/v acetonitrile:MilliQ water. The reconstituted samples are vortexed, centrifuged and injected into LC-MS/MS for analysis. The calibration curve is prepared in the range of 0.5 to 5000 ng/mL in mouse plasma for quantitation.

T1 sequence (P08069 999-1274 limits assumed): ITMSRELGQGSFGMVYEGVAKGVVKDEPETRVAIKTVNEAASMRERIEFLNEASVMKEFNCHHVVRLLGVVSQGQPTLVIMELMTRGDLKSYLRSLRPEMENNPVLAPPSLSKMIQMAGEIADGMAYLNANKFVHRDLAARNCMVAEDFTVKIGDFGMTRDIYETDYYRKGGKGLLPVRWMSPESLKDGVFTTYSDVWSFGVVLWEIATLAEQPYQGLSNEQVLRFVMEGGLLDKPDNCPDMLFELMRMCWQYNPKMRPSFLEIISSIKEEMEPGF
T2 sequence (P08684 whole entry): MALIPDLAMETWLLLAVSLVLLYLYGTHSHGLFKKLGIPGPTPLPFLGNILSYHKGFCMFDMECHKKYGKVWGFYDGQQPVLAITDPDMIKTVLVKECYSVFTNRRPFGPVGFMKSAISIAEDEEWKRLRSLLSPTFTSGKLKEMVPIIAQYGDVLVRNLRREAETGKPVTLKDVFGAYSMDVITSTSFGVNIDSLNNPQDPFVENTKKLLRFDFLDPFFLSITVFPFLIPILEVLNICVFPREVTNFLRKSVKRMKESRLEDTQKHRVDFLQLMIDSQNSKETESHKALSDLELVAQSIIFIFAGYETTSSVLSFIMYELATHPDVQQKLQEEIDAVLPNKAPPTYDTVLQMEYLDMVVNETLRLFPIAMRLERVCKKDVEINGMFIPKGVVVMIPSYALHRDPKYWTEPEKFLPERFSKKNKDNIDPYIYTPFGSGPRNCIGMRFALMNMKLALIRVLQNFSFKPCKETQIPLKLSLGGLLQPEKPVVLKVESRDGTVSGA
T3 sequence (P10635 whole entry): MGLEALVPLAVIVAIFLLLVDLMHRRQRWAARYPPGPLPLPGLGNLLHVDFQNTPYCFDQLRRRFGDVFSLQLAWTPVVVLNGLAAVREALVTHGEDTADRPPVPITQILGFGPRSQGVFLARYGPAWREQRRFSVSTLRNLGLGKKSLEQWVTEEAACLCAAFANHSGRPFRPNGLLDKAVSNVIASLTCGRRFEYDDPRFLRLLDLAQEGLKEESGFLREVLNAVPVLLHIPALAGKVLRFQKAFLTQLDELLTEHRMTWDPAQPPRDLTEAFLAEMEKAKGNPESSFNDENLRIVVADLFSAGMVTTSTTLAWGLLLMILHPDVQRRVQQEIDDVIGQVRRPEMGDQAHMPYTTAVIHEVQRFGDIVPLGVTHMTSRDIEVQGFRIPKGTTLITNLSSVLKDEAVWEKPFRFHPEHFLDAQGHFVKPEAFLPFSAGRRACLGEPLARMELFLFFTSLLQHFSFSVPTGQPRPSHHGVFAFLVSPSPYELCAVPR

SMILES	IC50 [1]	IC50 [2]	hepatic CYP3A4 inhibition as compared to compound 999 (CYP3A4)	inhibition at 10 uM (CYP3A4)	inhibition at 10 uM (CYP2D6)	AUC as compared to compound 999 [3]	Cmax as compared to compound 999 [3]	Cmax [3]	half-life [3]	AUC(0-inf) [3]	hepatic CYP2D6 inhibition as compared to compound 999 (CYP2D6; 10 uM)	anti-proliferative activity as compared to compound 999 [2]
Cc1ccc(OC[C@@H]2CN(S(=O)(=O)c3c(C(N)=O)[nH]c4ccc(Cl)cc34)CCO2)cc1-c1ccccc1 [Compound 20, (S)-5-chloro-3-((2-(((6-methyl-[1,1′-biphenyl]-3-yl)oxy)methyl)morpholino)sulfonyl)-1H-indole-2-carboxamide]	140 nM	–	reduced	2%	25%	higher	higher	1.98 µM	2.1 h	4.71 µg·h/mL	–	–
CCOc1ccc(-c2cccc(OC[C@@H]3CN(S(=O)(=O)c4c(C(N)=O)[nH]c5ccc(Cl)cc45)CCO3)c2)cn1 [Compound 17, (S)-5-chloro-3-((2-((3-(6-ethoxypyridin-3-yl)phenoxy)methyl)morpholino)sulfonyl)-1H-indole-2-carboxamide]	10 nM	–	reduced	2%	13%	–	–	–	–	–	–	–
NC(=O)c1[nH]c2ccc(I)cc2c1S(=O)(=O)N1CCO[C@H](COc2ccccc2)C1 [Compound 999, reference compound]	–	3.5 nM	–	36%	13%	–	–	1.2 µM	1.31 h	1.05 µg·h/mL	–	–
NC(=O)c1[nH]c2ccc(Cl)cc2c1S(=O)(=O)N1CCO[C@H](COc2cccc(-c3ccccc3)c2)C1 [Compound 1, (S)-3-((2-(([1,1′-biphenyl]-3-yloxy)methyl)morpholino)sulfonyl)-5-chloro-1H-indole-2-carboxamide]	33 nM	1.8 nM	–	–	–	higher	higher	8.56 µM	5.3 h	10.9 µg·h/mL	–	higher

Further molecules by falling IC50 [1], results first:

IC50 [1]	IC50 [2]	hepatic CYP3A4 inhibition as compared to compound 999 (CYP3A4)	inhibition at 10 uM (CYP3A4)	inhibition at 10 uM (CYP2D6)	AUC as compared to compound 999 [3]	Cmax as compared to compound 999 [3]	Cmax [3]	half-life [3]	AUC(0-inf) [3]	hepatic CYP2D6 inhibition as compared to compound 999 (CYP2D6; 10 uM)	SMILES	anti-proliferative activity as compared to compound 999 [2]
9.3 nM	–	reduced	24%	16%	–	–	–	–	–	–	Cc1cc(OC[C@@H]2CN(S(=O)(=O)c3c(C(N)=O)[nH]c4ccc(Cl)cc34)CCO2)ccc1-c1ccnc(Cl)c1 [Compound 87, (S)-5-chloro-3-((2-((4-(2-chloropyridin-4-yl)-3-methylphenoxy)methyl)morpholino)sulfonyl)-1H-indole-2-carboxamide]	–
6.4 nM	–	–	37%	0%	–	–	–	–	–	reduced	NC(=O)c1[nH]c2ccc(Cl)cc2c1S(=O)(=O)N1CCO[C@H](COc2ccc(-c3ncccn3)cc2)C1 [Compound 53, (S)-5-chloro-3-((2-((4-(pyrimidin-2-yl)phenoxy)methyl)morpholino)sulfonyl)-1H-indole-2-carboxamide]	–
4.3 nM	0.15 nM	reduced	13%	34%	higher	higher	2.55 µM	1 h	3.25 µg·h/mL	–	Cc1cc(-c2ccc(OC[C@@H]3CN(S(=O)(=O)c4c(C(N)=O)[nH]c5ccc(Cl)cc45)CCO3)cc2)ccn1 [Compound 51, (S)-5-chloro-3-((2-((4-(2-methylpyridin-4-yl)phenoxy)methyl)morpholino)sulfonyl)-1H-indole-2-carboxamide]	higher
